These results are taken from US20260265279A1, “RHO-ASSOCIATED PROTEIN KINASE INHIBITOR AND PREPARATION AND USE THEREOF” (Shanghai Zhimeng Biopharma, Inc, priority 2022, published 2026).

The term IC50 denotes the concentration that inhibits the measured activity by half. A high value points to lower potency.

One assay addresses T1, ROCK1 (Homo sapiens, UniProt Q13464).
T1 construct: purchased Invitrogen PV3691
Description: Kinase IC50 assay, HTRF kinEASE STK S2 kit, ROCK1. It counts as biochemical. Particulars: ATP 1.5 μM, 2.5 ng/well enzyme, 120 min. On the procedure:
(§1) Kinase IC50 assay was performed using the kinase assay kit HTRF kinEASE STK S2 kit (Cat #62ST2PEC, Cisbio). Kinases ROCK1 (Cat #PV3691) and ROCK2 (Cat #PV3759) were purchased from Invitrogen.
(§2) The working solution required for the assay was prepared with the appropriate reagents as described in the kinase assay kit instructions:
(§3) 1 mL of 1× Kinase Buffer contains 200 μL 5× Enzyme buffer, 5 μL 1M MgCl2 (Cat.M8266, Sigma), 1 μL 1M DTT (Cat.D5545, Sigma), 794 μL ddH2O.
(§4) The specific concentrations of STK-biotin substrate and ATP are shown in Table A. STK-biotin substrate and ATP were diluted with 1× kinase buffer to 2.5 times of the reaction concentration.
(§5) Concentrations of ROCK1/ROCK2 are shown in Table A. 5×ROCK1/ROCK2 Kinase working solution was prepared with 1× Kinase Buffer.
(§6) See Table A for the concentrations of Streptavidin-XL665 and STK Antibody-Cryptate in the reaction. 2× Streptavidin-XL665 and STK Antibody-Cryptate Working Solutions were prepared 5 minutes prior to the end of the kinase reaction using Detection Buffer from the kit.
(§7) A 100 μM compound mother solution was prepared using 1× kinase buffer containing 2.5% DMSO, and the mother solution was diluted 4-fold stepwise with the above DMSO-containing kinase buffer to obtain nine different concentrations of the compound solutions to be tested. In addition to the test compound wells, positive control wells (containing all reagents except the compounds) and negative control wells (containing all reagents except the compounds and kinase) were set up. 4 μL of the test compound solution was added to all reaction wells except the control wells and 4 μL of 2.5% DMSO solution was added to the control wells. Then 4 μL of previously prepared substrate and ATP working solution were added to all wells and mix well. Then, 2 μL/well of 5×ROCK1/ROCK2 kinase working solution (containing 2.5 ng ROCK1/ROCK2 kinase) was added to all reaction wells except negative control wells, and the negative control wells were made up to volume with 2 μL of 1× kinase buffer. Mix well, seal with plastic film and incubate at room temperature for 2 hours. Start preparing the assay solution 5 minutes before the end of the kinase reaction. After the end of the kinase reaction, 10 μL of prepared Streptavidin-XL665 and STK Antibody-Cryptate working solution were added to all reaction wells, the plates were sealed and mixed well, and then incubated at room temperature for 1 hour. Finally, the fluorescence signal was detected by SpectraMax i3x Multi-Mode Reader (Molecular Devices) (excitation wavelength is 320 nm, emission wavelength is 665 nm and 615 nm).
(§8) The inhibition rate in each well was calculated from the fluorescence intensity values of each well:
(§9) ER Emission Ratio, Emission light ratio=fluorescence intensity at 665 nm/fluorescence intensity at 615 nm;
(§10) ERcompound, ER of test compound wells; ERvehicle, ER of solvent (positive) control wells, ERblank, ER of blank (negative) control wells.
(§11) The graphs were plotted using the software GraphPad Prism 6.0, while the half inhibitory concentration (IC50) of each compound to be tested was obtained by fitting with Prism 6.0.
A general note: Time-resolved FRET reads energy transfer from a long-lived donor to a nearby acceptor.

The target in another assay is T2, ROCK2 (Homo sapiens, UniProt O75116).
T2 construct: purchased Invitrogen PV3759
Description: Kinase IC50 assay, HTRF kinEASE STK S2 kit, ROCK2. It counts as biochemical. The following applies: ATP 1 μM, 2.5 ng/well enzyme, 120 min. On the procedure: as §1, §2, §3, §4, §5, §6, §7, §8, §9, §10, §11

T1 sequence (Q13464 1-535 limits assumed): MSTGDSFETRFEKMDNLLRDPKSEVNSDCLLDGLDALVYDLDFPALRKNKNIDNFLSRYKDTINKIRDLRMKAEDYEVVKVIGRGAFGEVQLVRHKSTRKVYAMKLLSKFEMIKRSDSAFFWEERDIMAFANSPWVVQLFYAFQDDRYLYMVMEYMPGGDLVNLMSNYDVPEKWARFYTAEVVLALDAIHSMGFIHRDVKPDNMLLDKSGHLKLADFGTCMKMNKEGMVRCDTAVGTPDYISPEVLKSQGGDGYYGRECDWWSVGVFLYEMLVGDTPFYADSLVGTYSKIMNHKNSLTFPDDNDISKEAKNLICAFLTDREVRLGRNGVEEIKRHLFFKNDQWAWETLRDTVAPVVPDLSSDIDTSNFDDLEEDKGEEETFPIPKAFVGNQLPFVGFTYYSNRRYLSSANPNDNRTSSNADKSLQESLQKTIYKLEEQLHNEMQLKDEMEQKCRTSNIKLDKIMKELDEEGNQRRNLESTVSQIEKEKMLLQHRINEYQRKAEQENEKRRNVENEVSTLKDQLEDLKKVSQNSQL
T2 sequence (O75116 5-554 limits assumed): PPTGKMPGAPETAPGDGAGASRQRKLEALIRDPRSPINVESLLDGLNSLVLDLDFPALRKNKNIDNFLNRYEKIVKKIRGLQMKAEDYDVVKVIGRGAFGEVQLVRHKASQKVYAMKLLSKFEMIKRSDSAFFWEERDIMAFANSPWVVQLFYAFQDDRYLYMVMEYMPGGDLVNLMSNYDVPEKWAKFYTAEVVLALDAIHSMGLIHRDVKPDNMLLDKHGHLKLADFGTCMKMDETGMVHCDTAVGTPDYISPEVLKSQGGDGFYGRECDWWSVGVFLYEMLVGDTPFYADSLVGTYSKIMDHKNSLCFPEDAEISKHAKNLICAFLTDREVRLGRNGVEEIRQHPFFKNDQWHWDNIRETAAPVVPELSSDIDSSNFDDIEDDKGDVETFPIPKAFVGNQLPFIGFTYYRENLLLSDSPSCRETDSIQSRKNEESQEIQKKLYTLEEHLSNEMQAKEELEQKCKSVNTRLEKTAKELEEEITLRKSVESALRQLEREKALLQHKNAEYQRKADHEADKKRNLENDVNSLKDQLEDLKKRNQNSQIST

Turning to `Cn1c(C#Cc2nccc(Nc3ccc4[nH]ncc4c3)n2)ccc1C(=O)N1CC(F)(F)C1` [Compound A2], the half-maximal inhibitory concentration (IC50) against ROCK1 was 3.9 µM; against ROCK2 it was 0.303 µM.
Consider `Cc1cnc(C#Cc2ccc(C(=O)N3CC(F)(F)C3)n2C)nc1Nc1ccc(-c2cn[nH]c2)cc1` [Compound A4], for which the IC50 came to 80 µM against ROCK1 and 0.186 µM against ROCK2.
As for `Cc1cc(Nc2ccc(-c3cn[nH]c3)cc2)nc(C#Cc2ccc(C(=O)N3CC(F)(F)C3)n2C)n1` [Compound A5], the IC50 is over 100 µM against ROCK1 and 0.091 µM at ROCK2.
In the same order, the values of `Cc1nc(C#Cc2ccc(C(=O)N3CC(F)(F)C3)n2C)nc(Nc2ccc(-c3cn[nH]c3)cc2)c1C` [Compound A6] are 35.2 µM and 0.202 µM.
With `Cn1c(C#Cc2ncc(F)c(Nc3ccc(-c4cn[nH]c4)cc3)n2)ccc1C(=O)N1CC(F)(F)C1` [Compound A7], the values for the concentration for half-maximal inhibition (IC50) against ROCK1 and on ROCK2 were over 100 µM and 0.0544 µM, respectively.
In the same order, the values of `Cn1c(C#Cc2ncc(C#N)c(Nc3ccc(-c4cn[nH]c4)cc3)n2)ccc1C(=O)N1CC(F)(F)C1` [Compound A8] are over 100 µM and 3.49 µM.
In the same order, the values of `Cn1c(C#Cc2ncnc(Nc3ccc(-c4cn[nH]c4)cc3)n2)ccc1C(=O)N1CC(F)(F)C1` [Compound A9] are over 100 µM and 0.702 µM.
For `Cn1c(C#Cc2nc3c(c(Nc4ccc(-c5cn[nH]c5)cc4)n2)COC3)ccc1C(=O)N1CC(F)(F)C1` [Compound A10], in that order: over 100 µM and 0.0778 µM.
For the molecule `CN1Cc2nc(C#Cc3ccc(C(=O)N4CC(F)(F)C4)n3C)nc(Nc3ccc(-c4cn[nH]c4)cc3)c2C1` [Compound A11], the IC50 at ROCK1 was over 100 µM; against ROCK2 it was 0.0867 µM.
In the same order, the values of `Cc1cc(Nc2ccnc(C#Cc3ccc(C(=O)N4CC(F)(F)C4)n3C)n2)ccc1-c1cn[nH]c1` [Compound A12] are 32.3 µM and 0.199 µM.
With `Cc1n[nH]c(C)c1-c1ccc(Nc2ccnc(C#Cc3ccc(C(=O)N4CC(F)(F)C4)n3C)n2)cc1` [Compound A14], the IC50 against ROCK1 was over 100 µM; against ROCK2, 0.585 µM.
For `Cn1c(C#Cc2ncc(F)c(Nc3ccc(-c4c[nH]nc4F)cc3)n2)ccc1C(=O)N1CC(F)(F)C1` [Compound A15], in that order: over 100 µM and 0.421 µM.
In the same order, the values of `Cc1[nH]ncc1-c1ccc(Nc2nc(C#Cc3ccc(C(=O)N4CC(F)(F)C4)n3C)ncc2F)cc1` [Compound A16] are 29.6 µM and 0.0349 µM.
For `Cn1nc(C#Cc2nccc(Nc3ccc(-c4cn[nH]c4)cc3)n2)cc1C(=O)N1CC(F)(F)C1` [Compound A17], in that order: 50.3 µM and 1.06 µM.
In the case of `Cn1cc(C#Cc2nccc(Nc3ccc(-c4cn[nH]c4)cc3)n2)cc1C(=O)N1CC(F)(F)C1` [Compound A18], the values for the IC50 against ROCK1 and on ROCK2 were 53.8 µM and 2.35 µM, respectively.
With `O=C(c1ccc(C#Cc2nccc(Nc3ccc(-c4cn[nH]c4)cc3)n2)s1)N1CC(F)(F)C1` [Compound A19], the values for the IC50 against ROCK1 and against ROCK2 were over 100 µM and 50.5 µM, respectively.
For `O=C(c1cccc(C#Cc2nccc(Nc3ccc(-c4cn[nH]c4)cc3)n2)n1)N1CC(F)(F)C1` [Compound A20], in that order: over 100 µM and 0.206 µM.
`O=C(c1ccc(C#Cc2nccc(Nc3ccc(-c4cn[nH]c4)cc3)n2)nc1)N1CC(F)(F)C1` [Compound A21]: the figures for the IC50 on ROCK1 and against ROCK2 were over 100 µM and 0.754 µM, respectively.
Consider `Cc1c(Nc2ccnc(C#Cc3ccc(C(=O)N4CC(F)(F)C4)n3C)n2)ccc2[nH]ncc12` [Compound A22], for which the IC50 against ROCK1 came out at 40.9 µM; on ROCK2, 3.59 µM.
For `Cn1c(C#Cc2ncc(F)c(Nc3ccc4c(=O)[nH]ccc4c3)n2)ccc1C(=O)N1CC(F)(F)C1` [Compound A27], in that order: over 100 µM and 0.274 µM.
For `O=C(c1ccc(C#Cc2nccc(Nc3ccc(-c4cn[nH]c4)cc3)n2)cc1)N1CC(F)(F)C1` [Compound A28], in that order: over 100 µM and 1.1 µM.
In the same order, the values of `O=C(c1cccc(C#Cc2nccc(Nc3ccc(-c4cn[nH]c4)cc3)n2)c1)N1CC(F)(F)C1` [Compound A29] are 57.1 µM and 2 µM.
Regarding `O=C(c1ccc(C#Cc2nccc(Nc3ccc(-c4cn[nH]c4)cc3)n2)n1C1CC1)N1CC(F)(F)C1` [Compound A30], the IC50 came out at 41.9 µM against ROCK1 and 0.118 µM against ROCK2.
In the same order, the values of `CCn1c(C#Cc2nccc(Nc3ccc(-c4cn[nH]c4)cc3)n2)ccc1C(=O)N1CC(F)(F)C1` [Compound A32] are 30.7 µM and 0.232 µM.
For the molecule `Cn1c(C#Cc2nc(Nc3ccc(-c4cn[nH]c4)cc3)c3ccccc3n2)ccc1C(=O)N1CC(F)(F)C1` [Compound A37], the IC50 is over 100 µM at ROCK1 and 0.42 µM against ROCK2.
In the same order, the values of `O=C1c2ccc(C#Cc3ncc(F)c(Nc4ccc(-c5cn[nH]c5)cc4)n3)n2CCN1CC(F)(F)F` [Compound A38] are over 100 µM and 0.445 µM.
As for `Cc1cc(C(=O)N2CC(F)(F)C2)n(C)c1C#Cc1ncc(F)c(Nc2cc(F)c(-c3cn[nH]c3)c(F)c2)n1` [Compound A40], the IC50 against ROCK1 is over 100 µM; against ROCK2, 0.0172 µM.
For `Cc1cc(C(=O)N2CC(F)(F)C2)n(C)c1C#Cc1ncc(F)c(Nc2cnc(-c3cn[nH]c3)c(F)c2)n1` [Compound A41], in that order: over 100 µM and 0.0724 µM.
For `Cc1cc(C(=O)N2CC(F)(F)C2)n(C)c1C#Cc1ncc(F)c(Nc2ccc(-c3cn[nH]c3)c(F)c2)n1` [Compound A42], in that order: 4.93 µM and 0.005 µM.
Consider `Cc1cc(C(=O)N2CC(F)(F)C2)n(C)c1C#Cc1ncc(F)c(Nc2cc(F)c(-c3cn[nH]c3C)c(F)c2)n1` [Compound A43], for which the IC50 against ROCK1 turned out to be 20.6 µM; against ROCK2, 0.0515 µM.
For `Cc1cc(C(=O)N2CC(F)(F)C2)n(C)c1C#Cc1ncc(F)c(Nc2ccc(-c3cn[nH]c3C)cc2)n1` [Compound A44], the IC50 on ROCK1 is over 100 µM; against ROCK2 it was 0.0127 µM.
`Cc1cc(C(=O)N2CC(F)(F)C2)n(C)c1C#Cc1nc(C)c(F)c(Nc2ccc(-c3cn[nH]c3)c(F)c2)n1` [Compound A45]: the IC50 on ROCK1 worked out at 8.8 µM; on ROCK2, 0.0352 µM.
`O=C(c1cccc(C#Cc2ncc(F)c(Nc3cc(F)c(-c4cn[nH]c4)cc3F)n2)n1)N1CC(F)(F)C1` [Compound A46]: the IC50 against ROCK1 was over 100 µM; against ROCK2, 0.161 µM.
In the same order, the values of `Cc1cc(C(=O)N2CC(F)(F)C2)n(C)c1C#Cc1ncc(F)c(Nc2cc(F)c(-c3cn[nH]c3C)cc2F)n1` [Compound A47] are over 100 µM and 0.476 µM.
In the same order, the values of `Cc1cc(C(=O)N2CC(F)(F)C2)n(C)c1C#Cc1ncc(F)c(Nc2cnc(-c3cn[nH]c3C)cc2F)n1` [Compound A48] are 18.4 µM and 0.0377 µM.
On to `Cc1cc(C(=O)N2CC(F)(F)C2)n(C)c1C#Cc1ncc(F)c(Nc2cc(F)c(-c3cn[nH]c3)cc2F)n1` [Compound A49], for which the half-maximal inhibitory concentration (IC50) on ROCK1 is 37.4 µM; against ROCK2, 0.0177 µM.
In the case of `Cc1cc(C(=O)N2CC(F)(F)C2)n(C)c1C#Cc1nc2c(c(Nc3cc(F)c(-c4cn[nH]c4)c(F)c3)n1)COC2` [Compound A50], the IC50 against ROCK1 came out at 0.073 µM; at ROCK2, 0.0089 µM.
In the same order, the values of `Cc1cc(C(=O)N2CC(F)(F)C2)n(C)c1C#Cc1ncc(F)c(Nc2ccc(-c3cn[nH]c3C)cc2F)n1` [Compound A51] are over 100 µM and 0.131 µM.
In the same order, the values of `Cn1c(C(=O)N2CC(F)(F)C2)cc(C2CC2)c1C#Cc1ncc(F)c(Nc2cc(F)c(-c3cn[nH]c3)cc2F)n1` [Compound A54] are 64 µM and 0.0192 µM.
For `CC(C)c1cc(C(=O)N2CC(F)(F)C2)n(C)c1C#Cc1ncc(F)c(Nc2cc(F)c(-c3cn[nH]c3)cc2F)n1` [Compound A55], in that order: over 100 µM and 0.0573 µM.
